Key:
[1] = acute dental pain; Stern et al. 2005; cited from earlier work
[2] = Monoiodoacetamide (MIA)-induced osteoarthritis in rats, hind paw weight distribution; assay type: in vivo, Male Wistar rats; settings: oral gavage (PO), Day 14 post MIA injection, 1 and 2 hours post-administration; bicifadine 5, 10, 20, 40 or 60 mg/kg, morphine 60 mg/kg; FIG. 1
Protocol: Animals were fed standard rat chow with water available ad libitum.
The rats were anesthetized with 5% volume/volume (“v/v”) isoflurane gas and maintained with 2% v/v isoflurane gas. […] MIA was dissolved in physiologic saline and administered in a volume of 50 μL. The contralateral control knee was injected with 50 μL of physiologic saline. Administration of isoflurane gas was discontinued, and the rats became fully conscious about 5 minutes later.
Shifts in hind paw weight distribution from the right to the left hind paws supporting the right (arthritic) and the left (contralateral control) hind leg knee joints were utilized as an index of joint pain and as a measure of compound efficacy. An incapacitance tester (Model 2KG, Linton Instrumentation, UK) was employed for determination of hind paw weight distribution.
The acute dosing paradigm used herein relates to osteoarthritis signs such as mobility and joint function and osteoarthritis symptoms such as joint pain.

[3] = Duration of analgesic efficacy and plasma bicifadine levels in acute pain studies; assay type: in vivo, human; settings: bicifadine HCl, unit doses about 200 mg, 400 mg, or 600 mg; acute dental pain and bunionectomy pain studies
Protocol: Duration of analgesic efficacy of bicifadine in acute dental pain studies was estimated using a “last observation carried forward” (LOCF) statistical method, and was projected to last up to 6 hours, or even up to 12 hours (see, e.g., Czobor P., et al., Stark J., Beer G., Petti S., Lippa A., Brown J., Beer B.: A Double-Blind, Placebo Controlled Randomized Study of DOV220,075 (bicifadine) SR and Codeine 60 mg in the Treatment of Post-Operative Dental Pain. Presented at the 2nd Annual Scientific Meeting Mar. 20-23, 2003 Chicago, Ill. American Pain Society Abstract Database at http://www.ampainsoc.org/abstract/2003/data/index.html. (Poster #915)); Czobor P., Stark J., Beer G., Brown J., Sunshine A., Konery S., Turpin M., Olson N., Otero A., Lippa A., Beer B.: A two center double-blind, placebo-controlled randomized study of DOV 220,075 (bicifadine) SR and Tramadol 100 mg in the treatment of post-operative dental pain. The Journal of Pain, 2004: 5(1), Supplement 1, p 59. Presented at the Joint APS and Canadian Pain Society Annual Meeting (23rd APS Annual Scientific Meeting) May 6-9, 2004, Vancouver, BC Canada. American Pain Society Abstract Database at http://www.ampainsoc.org/abstract/2004/data/index.html (Poster #801); each incorporated herein by reference). […]

[4] = WOMAC Osteoarthritis Index in human osteoarthritis subjects; assay type: in vivo; settings: 400 mg bicifadine and/or 800 mg ibuprofen twice daily for seven days; 3 h post-dose on last day; FIG. 3
Protocol: (§1) 23 adult human subjects with clinically confirmed osteoarthritis (OA) of the hip or knee were selected based on (1) a finding of OA through clinical analysis of hip or knee pain for at least six months, (2) stiffness symptoms that persisted for more than 30 minutes (4) crepitus and (5) score of >40 mm on the visual analog scale (VAS). […]
(§2) Each patient's pain and function levels was rated just prior to administration of the first dose in each treatment period to establish a baseline and three hours after administration of the final dose of each treatment period. Subjects were evaluated according to the visual analog scale (FIG. 2), the Western Ontario and MacMaster Universities Osteoarthritis Index (WOMAC) (FIG. 3) and a global assessment score (FIG. 4).
Subjects were also evaluated according to the Western Ontario and MacMaster Universities Osteoarthritis Index (WOMAC) and asked the following series of questions: […]

[5] = Visual analog scale (VAS) of osteoarthritis pain in human osteoarthritis subjects; assay type: in vivo; settings: 400 mg bicifadine and/or 800 mg ibuprofen twice daily for seven days; baseline to 3 hours post dose on final day; FIG. 2
Protocol: as §1, §2
For the visual analog scale, each subject was asked the following question: “Draw a vertical line on the scale to indicate the average amount osteoarthritis pain you have in your index hip or knee in the prior 24 h period. • No Pain [______] Worst Pain You Can Imagine 100 mm The length of the line from “No Pain” to the vertical line drawn by the patient was then measured to determine the VAS measurement.

[6] = Global Assessment of Study Medication in human osteoarthritis subjects; assay type: in vivo; settings: 400 mg bicifadine and/or 800 mg ibuprofen twice daily for seven days; 3 h post-dose on last day; scale 0-4; FIG. 4
Protocol: 23 adult human subjects with clinically confirmed osteoarthritis (OA) of the hip or knee were selected based on (1) a finding of OA through clinical analysis of hip or knee pain for at least six months, (2) stiffness symptoms that persisted for more than 30 minutes (4) crepitus and (5) score of >40 mm on the visual analog scale (VAS). […] (Altman R. Asch E, Bloch D, Bole G, Borenstein D, Brandt K, et al. The American College of Rheumatology criteria for the classification and reporting of osteoarthritis of the knee. Arthritis Rheum 1986; 29:1039-1049) The subjects were randomized to a sequence of 400 mg of bicifadine twice daily for seven days (B), ibuprofen 800 mg twice daily for seven days (I), placebo twice daily for seven days (P), or 400 mg bicifadine and 800 mg ibuprofen twice daily for seven days (B+I) as shown in Table 3. […]
as §2
Subjects were further evaluated for a global assessment and were asked the following question: […]

[7] = Use of rescue medication in acute dental pain clinical trial (Stern et al.); assay type: in vivo, human
Protocol: These conclusions are further substantiated by the use of rescue medication by subjects in the Stem et al. acute dental pain studies. Table I below summarizes information on the use of rescue medication for patients who took rescue medication among the various treatment groups in the clinical trial reported by Stern et al. (id.) A nonparametric analysis (Median Test) was conducted to evaluate the median latency to rescue medication.
Survival analysis (Kaplan-Meier method, 95% confidence) was performed to compare the treatment groups with regard to time-to-rescue medication. […] The analysis yielded a statistically significant difference among the treatment groups (Log-Rank test, Chi-square=26.9, df=4, P=0.0001). […] In view of the foregoing evidence, the present disclosure documenting efficacy of a reduced, bi-daily or less frequent dosing regimen of bicifadine to yield effective treatment of chronic pain are unexpected. […] It is a surprising benefit, therefore, that a dosing regimen consisting of only one or two doses of bicifadine effectively alleviates symptoms of chronic pain over an extended period. The extended period of efficacy of the novel compositions and dosage forms of the invention provide significant relief of chronic pain symptoms over a period of at least 8 hours, or at least 12 hours, often at least 18 hours, and up to 24 hours or longer.

## Cc1ccc(C23CNCC2C3)cc1 (racemic) [bicifadine, (±)-1-(4-methylphenyl)-3-azabicyclo[3.1.0]hexane]
[1]
  Plasma bicifadine levels associated with the greatest pain relief: > 1000 ng/mL
  Plasma drug levels associated with significant analgesic efficacy: 500 to 1000 ng/mL
  Plasma drug levels not associated with significant analgesic effects: ≤ 500 ng/mL
[2]
  Effect on osteoarthritis-related pain (change in hind paw weight distribution): no significant effect
[3]
  Period of analgesic efficacy for effectively treating acute pain: up to 6 hours
[4]
  Improvement of functioning as determined by the WOMAC osteoarthritis index: no better than placebo
[5]
  Reduction of OA pain as measured by the visual analog scale: no different than treatment with placebo
[6]
  Global assessment score of study medication: marginally better than treatment with either placebo or ibuprofen alone

## COc1cccc(C2(O)CCCCC2CN(C)C)c1 (centres unmarked) [Tramadol]
[7]; 100-mg, Chi-square=18.7, df=1, P=0.0001
  Time-to-rescue medication vs placebo (Kaplan-Meier survival analysis, Log-Rank test): significantly less likely to use rescue medication
[7]; single dose 100 mg
  Median Time to Rescue Medication: 2.45 h
  Used Rescue Medication (N) No: 24
  Used Rescue Medication (N) Yes: 85

## CC(C)Cc1ccc(C(C)C(=O)O)cc1 (centres unmarked) [ibuprofen, reference compound]
[4]
  Improvement of functioning as determined by the WOMAC osteoarthritis index: no better than placebo
[5]
  Reduction of OA pain as measured by the visual analog scale: no different than treatment with placebo

Source: US20080014272A1, “Compositions and Methods for Treatment of Chronic Pain Conditions” (priority 2006, published 2008)
